pKd: −log10 of the molar value.
Tests used:
Experiment in all cases: Kinase Assay
[1] = target: RAF proto-oncogene serine/threonine-protein kinase (Homo sapiens, UniProt P04049)
Text: (§1) The assay is not in detail.

[2] = target: Serine/threonine-protein kinase B-raf (Homo sapiens, UniProt P15056)
Text: as §1

[3] = target: Serine/threonine-protein kinase B-raf [V600E] (Homo sapiens, UniProt P15056, V600E)
Text: as §1

[4] = target: Tyrosine-protein kinase CSK (Homo sapiens, UniProt P41240)
Text: as §1

[5] = target: Tyrosine-protein kinase Lck (Homo sapiens, UniProt P06239)
Text: as §1

Sequence of Serine/threonine-protein kinase B-raf (P15056 whole entry): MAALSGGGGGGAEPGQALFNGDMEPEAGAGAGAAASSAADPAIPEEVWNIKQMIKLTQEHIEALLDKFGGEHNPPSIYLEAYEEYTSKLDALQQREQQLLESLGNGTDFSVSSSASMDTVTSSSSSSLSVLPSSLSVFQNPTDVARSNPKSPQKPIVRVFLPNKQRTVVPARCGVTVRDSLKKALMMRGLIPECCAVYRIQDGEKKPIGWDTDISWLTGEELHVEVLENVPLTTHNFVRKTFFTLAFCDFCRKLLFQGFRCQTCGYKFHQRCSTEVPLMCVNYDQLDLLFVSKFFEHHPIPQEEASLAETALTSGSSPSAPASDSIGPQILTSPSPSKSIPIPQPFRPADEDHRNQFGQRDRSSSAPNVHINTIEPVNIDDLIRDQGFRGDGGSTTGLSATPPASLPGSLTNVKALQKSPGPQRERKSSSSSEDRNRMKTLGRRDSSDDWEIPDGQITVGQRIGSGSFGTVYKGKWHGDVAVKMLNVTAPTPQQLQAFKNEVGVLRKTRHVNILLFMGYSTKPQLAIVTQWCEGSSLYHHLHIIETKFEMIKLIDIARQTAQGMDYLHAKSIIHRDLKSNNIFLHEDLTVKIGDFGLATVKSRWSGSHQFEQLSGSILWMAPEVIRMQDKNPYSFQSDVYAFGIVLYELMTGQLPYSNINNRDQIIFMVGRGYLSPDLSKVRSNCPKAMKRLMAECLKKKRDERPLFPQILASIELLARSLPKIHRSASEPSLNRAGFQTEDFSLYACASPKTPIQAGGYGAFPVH
Sequence of RAF proto-oncogene serine/threonine-protein kinase (P04049 whole entry): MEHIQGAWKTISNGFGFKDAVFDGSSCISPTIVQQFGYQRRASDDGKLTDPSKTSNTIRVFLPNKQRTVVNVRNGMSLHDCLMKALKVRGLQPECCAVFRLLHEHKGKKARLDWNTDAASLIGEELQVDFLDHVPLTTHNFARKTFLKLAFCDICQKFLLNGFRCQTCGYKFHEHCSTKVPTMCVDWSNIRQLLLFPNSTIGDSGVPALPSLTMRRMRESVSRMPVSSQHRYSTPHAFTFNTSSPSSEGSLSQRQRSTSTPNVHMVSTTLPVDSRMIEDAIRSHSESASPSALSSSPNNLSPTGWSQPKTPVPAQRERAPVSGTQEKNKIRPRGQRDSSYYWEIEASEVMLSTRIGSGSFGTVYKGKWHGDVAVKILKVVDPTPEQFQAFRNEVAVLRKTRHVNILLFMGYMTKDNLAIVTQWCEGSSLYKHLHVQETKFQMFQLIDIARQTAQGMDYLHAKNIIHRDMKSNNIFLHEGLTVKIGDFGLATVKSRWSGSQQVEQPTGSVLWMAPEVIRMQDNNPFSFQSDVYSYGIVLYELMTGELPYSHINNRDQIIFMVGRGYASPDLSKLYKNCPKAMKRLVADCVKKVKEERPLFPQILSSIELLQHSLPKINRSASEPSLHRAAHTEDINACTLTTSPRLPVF
Sequence of Serine/threonine-protein kinase B-raf [V600E] (P15056 2-766 V600E limits assumed): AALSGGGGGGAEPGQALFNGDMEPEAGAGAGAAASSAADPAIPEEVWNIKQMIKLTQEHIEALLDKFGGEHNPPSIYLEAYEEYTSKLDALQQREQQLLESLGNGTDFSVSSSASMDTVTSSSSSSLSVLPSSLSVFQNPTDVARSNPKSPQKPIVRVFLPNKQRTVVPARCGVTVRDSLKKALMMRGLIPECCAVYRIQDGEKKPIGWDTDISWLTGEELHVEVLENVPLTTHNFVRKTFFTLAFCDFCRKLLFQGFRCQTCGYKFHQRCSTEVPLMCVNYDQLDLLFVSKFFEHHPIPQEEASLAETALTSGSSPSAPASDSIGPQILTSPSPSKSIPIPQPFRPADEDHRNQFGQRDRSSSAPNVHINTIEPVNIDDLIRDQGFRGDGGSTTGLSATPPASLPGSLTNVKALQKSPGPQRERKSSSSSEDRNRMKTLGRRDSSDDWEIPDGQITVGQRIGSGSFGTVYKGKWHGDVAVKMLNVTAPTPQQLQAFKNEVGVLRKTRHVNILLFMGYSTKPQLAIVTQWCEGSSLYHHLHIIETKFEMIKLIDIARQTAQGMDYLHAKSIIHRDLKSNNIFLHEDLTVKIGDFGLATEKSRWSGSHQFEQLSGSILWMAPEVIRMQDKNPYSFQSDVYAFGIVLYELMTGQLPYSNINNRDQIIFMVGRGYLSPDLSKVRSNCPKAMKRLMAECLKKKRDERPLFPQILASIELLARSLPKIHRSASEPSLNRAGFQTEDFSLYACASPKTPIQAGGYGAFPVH
Sequence of Tyrosine-protein kinase Lck (P06239 whole entry): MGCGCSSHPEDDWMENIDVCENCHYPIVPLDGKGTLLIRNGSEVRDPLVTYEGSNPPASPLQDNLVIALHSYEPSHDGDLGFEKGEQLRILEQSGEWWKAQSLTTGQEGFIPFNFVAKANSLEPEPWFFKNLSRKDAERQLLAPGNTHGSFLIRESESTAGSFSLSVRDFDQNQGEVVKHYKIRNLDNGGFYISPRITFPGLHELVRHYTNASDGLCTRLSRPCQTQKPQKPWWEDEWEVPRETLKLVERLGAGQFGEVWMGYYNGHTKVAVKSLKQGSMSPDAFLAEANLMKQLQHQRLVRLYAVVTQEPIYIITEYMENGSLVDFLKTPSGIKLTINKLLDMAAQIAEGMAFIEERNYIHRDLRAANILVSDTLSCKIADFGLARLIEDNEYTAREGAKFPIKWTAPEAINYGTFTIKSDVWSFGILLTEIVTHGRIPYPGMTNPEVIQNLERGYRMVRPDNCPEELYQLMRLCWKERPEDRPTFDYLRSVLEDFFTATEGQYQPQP
Sequence of Tyrosine-protein kinase CSK (P41240 whole entry): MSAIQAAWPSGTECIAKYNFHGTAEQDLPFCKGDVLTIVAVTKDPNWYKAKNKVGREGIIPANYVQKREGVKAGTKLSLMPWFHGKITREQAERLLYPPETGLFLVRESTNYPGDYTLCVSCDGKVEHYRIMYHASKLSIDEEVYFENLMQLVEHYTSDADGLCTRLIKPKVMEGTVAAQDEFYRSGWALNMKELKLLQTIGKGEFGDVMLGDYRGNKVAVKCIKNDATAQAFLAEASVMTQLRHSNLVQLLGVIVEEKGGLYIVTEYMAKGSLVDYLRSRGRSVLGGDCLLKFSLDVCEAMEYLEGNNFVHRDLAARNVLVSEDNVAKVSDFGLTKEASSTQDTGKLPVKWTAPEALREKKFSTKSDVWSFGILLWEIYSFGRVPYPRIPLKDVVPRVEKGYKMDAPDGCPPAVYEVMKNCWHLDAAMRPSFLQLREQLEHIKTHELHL

CN(C)S(=O)(=O)Nc1ccc(Cl)c(Oc2ccc3ncn(C)c(=O)c3c2)c1C#N [US20240174621, Example AR-30]
pKd [1]: 6.09 | pKd [2]: 6.76 | pKd [3]: 6.30 | pKd [4]: 5.10 | pKd [5]: 4.98

Cn1cnc2ccc(Oc3c(Cl)ccc(NS(=O)(=O)N4CCCC4)c3C#N)cc2c1=O [US20240174621, Example AR-31]
pKd [1]: 6.72 | pKd [2]: 7.34 | pKd [3]: 6.92 | pKd [4]: 5.92 | pKd [5]: 4.92

From BindingDB's records for patent US20240174621 (Hoffmann-La Roche, 2024)
